Measured values reported in the supplement of paper PMC8882468.

Columns and labels:
Assay in all cases: CTG-3D luminescence at 96 h relative to day-0 seeding control (ratio to day 0); higher = more growth / less cytotoxicity; PDxO 3D drug screen, 96 h, CTG-3D normalised to day-0 seeding control.
HCI-011.E2 = test system: HCI-011.E2 (organoid from an ER-positive breast cancer xenograft)
HCI-001 = test system: HCI-001 (organoid from a triple-negative breast cancer xenograft)
HCI-012 = test system: HCI-012 (organoid from a breast cancer xenograft)
HCI-010 = test system: HCI-010 (organoid from a breast cancer xenograft)
HCI-027 = test system: HCI-027 (organoid from a triple-negative breast cancer xenograft)
MDA-MB-231 = test system: MDA-MB-231

NC(=O)c1cccc2cn(-c3ccc([C@@H]4CCCNC4)cc3)nc12 [niraparib]
CTG-3D luminescence at 96 h
Conditions	12.5 pM	0.00025 µM	0.005 µM	0.1 µM	1 µM	10 µM	100 µM	625 fM
HCI-011.E2	1.33	1.59	1.3	1.76	1.7	1.55	0.00155	1.465
MDA-MB-231	4.51	4.46	4.51	4.46	4.41	3.96	0.00282	4.58

CTG-3D luminescence at 96 h
Conditions	12.5 pM	0.00025 µM	0.005 µM	0.1 µM	1 µM	10 µM	100 µM	625 fM
HCI-001, days in culture: 240	1.8	0.913	0.843	1.05	1.61	1.03	-0.07	1.32
HCI-001, days in culture: 260	2.65	1.11	2.11	1.64	1.53	1.92	-0.0335	1.4
HCI-001, days in culture: 269	1.85	1.93	1.42	1.32	1.1	1.23	-0.00141	1.67
HCI-001, days in culture: 327	1.97	1.95	2.3	1.8	1.66	1.28	-0.186	2.27
HCI-001, days in culture: 346	1.69	1.24	1.24	1.4	1.51	1.1	-0.143	1.28
HCI-001, days in culture: 364	1.81	1.28	1.69	1.33	1.33	1.2	-0.0638	1.67
HCI-010, days in culture: 52	1.94	2.41	2.17	2.55	2.02	0.332	0.006	2.06
HCI-010, days in culture: 65	1.44	1.78	1.88	1.63	1.54	0.382	0.000688	1.62
HCI-010, days in culture: 103	3.06	3.18	3.13	3.19	2.67	0.397	0.00829	2.94
HCI-011.E2, days in culture: 74	1.93	2.01	1.98	1.97	1.88	2.89	0.00301	1.92
HCI-012, days in culture: 143	2.27	2.44	2.4	2.56	1.52	0.467	-0.00164	1.73
HCI-012, days in culture: 162	2.37	2.45	2.2	2.6	0.841	0.415	-0.00213	3.12
HCI-012, days in culture: 201	3.14	2.4	1.89	1.81	1.95	0.307	-0.207	1.71
HCI-027, days in culture: 176	3.12	1.73	3.18	2.13	1.7	0.11	-0.239	3.68
HCI-027, days in culture: 194	2.35	1.82	2.05	2.39	1.88	0.735	-0.0845	2.19
HCI-027, days in culture: 201	3.32	3.11	3.01	2.94	1.55	0.457	-0.0215	2.7

CC(=O)O[C@H]1C(=O)[C@@]2(C)[C@H]([C@H](OC(=O)c3ccccc3)[C@]3(O)C[C@H](OC(=O)[C@H](O)[C@@H](NC(=O)c4ccccc4)c4ccccc4)C(C)=C1C3(C)C)[C@]1(OC(C)=O)CO[C@@H]1C[C@@H]2O [paclitaxel]
CTG-3D luminescence at 96 h
Conditions	12.5 pM	0.00025 µM	0.005 µM	0.1 µM	1 µM	10 µM	100 µM	625 fM
HCI-011.E2	1.3	1.33	1.09	1.41	1.34	1.77	1.8	1.52
MDA-MB-231	3.73	3.45	2.71	2.03	2	2.42	1.09	3.85

CTG-3D luminescence at 96 h
Conditions	12.5 pM	0.00025 µM	0.005 µM	0.1 µM	1 µM	10 µM	100 µM	625 fM
HCI-001, days in culture: 240	1.49	1.15	0.619	0.709	0.952	0.995	1.03	1.1
HCI-001, days in culture: 260	2.45	1.13	1.23	1.27	1.14	1.08	0.703	1.55
HCI-001, days in culture: 269	1.48	1.52	0.95	0.728	0.749	0.987	0.92	1.27
HCI-001, days in culture: 327	1.26	0.725	1.04	0.686	1.06	0.714	0.685	1.53
HCI-001, days in culture: 346	1.29	1.24	1.16	0.568	0.791	0.655	0.947	1.18
HCI-001, days in culture: 364	1.37	1.15	1.31	0.657	0.699	0.681	0.715	1.49
HCI-010, days in culture: 52	2.13	2.39	2.24	1.16	1.15	1.12	0.408	2.28
HCI-010, days in culture: 65	1.61	1.57	1.36	1.05	0.898	0.958	0.43	1.64
HCI-010, days in culture: 103	3.62	3.37	3.05	1.41	1.24	1.28	0.858	3.06
HCI-011.E2, days in culture: 74	2.01	2.21	1.82	1.95	1.91	2.73	1.85	2.25
HCI-012, days in culture: 143	1.61	1.85	0.96	0.518	0.54	0.829	0.769	1.71
HCI-012, days in culture: 162	2.5	2.34	1.11	0.633	0.571	1.14	1.16	2.67
HCI-012, days in culture: 201	1.12	0.271	0.477	0.241	0.609	0.237	1.01	0.564
HCI-027, days in culture: 176	2.38	1.31	0.504	0.265	0.283	0.392	0.34	2.59
HCI-027, days in culture: 194	1.95	1.6	0.751	0.185	0.242	0.511	0.427	1.65
HCI-027, days in culture: 201	2.25	2.16	0.808	0.215	0.284	0.563	0.342	2.03
